± gives the uncertainty stated by the source.
Assay: xn = mol fraction of the nth substance listed

CC(=O)CC(C)(C)O + O
Conditions	viscosity [mPa·s]
298.15 K, 101 kPa, x1 = 0.017	1.261 ± 0.033
298.15 K, 101 kPa, x2 = 0.2547	4.143 ± 0.11
298.15 K, 101 kPa, x2 = 0.4824	5.758 ± 0.15
298.15 K, 101 kPa, x2 = 0.6067	6.204 ± 0.17
298.15 K, 101 kPa, x2 = 0.7114	5.917 ± 0.16
298.15 K, 101 kPa, x2 = 0.776	5.315 ± 0.14
298.15 K, 101 kPa, x2 = 0.8342	4.609 ± 0.12
298.15 K, 101 kPa, x2 = 0.886	3.616 ± 0.095
298.15 K, 101 kPa, x2 = 0.9237	2.698 ± 0.07
298.15 K, 101 kPa, x2 = 0.9508	2.022 ± 0.053
298.15 K, 101 kPa, x2 = 0.9511	2.022 ± 0.053
298.15 K, 101 kPa, x2 = 0.9717	1.516 ± 0.039
303.15 K, 100 kPa, x2 = 0.1	2.81 ± 0.067
303.15 K, 100 kPa, x2 = 0.2	3.27 ± 0.079
303.15 K, 100 kPa, x2 = 0.3	3.65 ± 0.089
303.15 K, 100 kPa, x2 = 0.4	4.15 ± 0.1
303.15 K, 100 kPa, x2 = 0.5	4.55 ± 0.11
303.15 K, 100 kPa, x2 = 0.6	4.71 ± 0.12
303.15 K, 100 kPa, x2 = 0.7	4.57 ± 0.11
303.15 K, 100 kPa, x2 = 0.8	4.08 ± 0.096
303.15 K, 100 kPa, x2 = 0.9	2.6 ± 0.062
323.15 K, 100 kPa, x2 = 0.1	1.69 ± 0.042
323.15 K, 100 kPa, x2 = 0.2	1.82 ± 0.047
323.15 K, 100 kPa, x2 = 0.3	2.06 ± 0.054
323.15 K, 100 kPa, x2 = 0.4	2.1 ± 0.058
323.15 K, 100 kPa, x2 = 0.5	2.3 ± 0.063
323.15 K, 100 kPa, x2 = 0.6	2.32 ± 0.065
323.15 K, 100 kPa, x2 = 0.7	2.31 ± 0.063
323.15 K, 100 kPa, x2 = 0.8	2.09 ± 0.057
323.15 K, 100 kPa, x2 = 0.9	1.48 ± 0.038

CCC(N)=O + O
298.15 K, 101 kPa
Conditions	viscosity [mPa·s]
x1 = 0.003097	0.919 ± 0.18
x1 = 0.0145	1.025 ± 0.2
x1 = 0.03165	1.188 ± 0.24
x1 = 0.06563	1.536 ± 0.31
x1 = 0.1487	3.03 ± 0.61
x1 = 0.3724	5.98 ± 1.2

CCCCCCCCCCCCCC[P+](CCCCCC)(CCCCCC)CCCCCC.c1ccc2[n-]nnc2c1 + O
Conditions	viscosity [mPa·s]
298.15 K, 100 kPa, x2 = 0.728	181 ± 6

CCCCCCCO + O
Conditions	viscosity [mPa·s]
298.15 K, 101 kPa, x2 = 0.28	5.5 ± 0.15

CCC[NH2+]CCO.O=C([O-])c1ccccc1O + O
100 kPa, x2 = 0.14
Conditions	viscosity [mPa·s]
298 K	376.1 ± 16
303 K	261.8 ± 11
313 K	136.8 ± 5
323 K	78.08 ± 2.7

CCN(CC)CCO + O
Conditions	viscosity [mPa·s]
293.15 K, 101 kPa, x1 = 0.062	4.536 ± 0.025
298.15 K, 101 kPa, x1 = 0.062	3.689 ± 0.023
298.15 K, 101.33 kPa, x1 = 0.0039	0.991 ± 0.025
298.15 K, 101.33 kPa, x1 = 0.008	1.104 ± 0.028
298.15 K, 101.33 kPa, x1 = 0.0121	1.233 ± 0.03
298.15 K, 101.33 kPa, x1 = 0.0169	1.4 ± 0.034
298.15 K, 101.33 kPa, x1 = 0.0261	1.752 ± 0.042
298.15 K, 101.33 kPa, x1 = 0.0372	2.242 ± 0.053
298.15 K, 101.33 kPa, x1 = 0.0602	3.439 ± 0.079
298.15 K, 101.33 kPa, x1 = 0.0909	5.404 ± 0.12
298.15 K, 101.33 kPa, x1 = 0.1326	8.287 ± 0.17
298.15 K, 101.33 kPa, x1 = 0.1883	11.72 ± 0.22
298.15 K, 101.33 kPa, x1 = 0.3136	15.25 ± 0.28
298.15 K, 101.33 kPa, x1 = 0.4547	14.14 ± 0.26
298.15 K, 101.33 kPa, x1 = 0.5001	13.45 ± 0.23
298.15 K, 101.33 kPa, x1 = 0.6638	9.491 ± 0.18
298.15 K, 101.33 kPa, x1 = 0.758	6.903 ± 0.14
298.15 K, 101.33 kPa, x1 = 0.8765	5.478 ± 0.12
298.15 K, 101.33 kPa, x1 = 0.9544	4.484 ± 0.1
303.15 K, 100 kPa, x1 = 0.06181	3 ± 0.06
303.15 K, 100 kPa, x1 = 0.09296	4.51 ± 0.09
303.15 K, 101 kPa, x1 = 0.02641	1.53 ± 0.03
303.15 K, 101 kPa, x1 = 0.062	3.048 ± 0.021
303.15 K, 101 kPa, x1 = 0.1117	5.23 ± 0.11
303.15 K, 101.33 kPa, x1 = 0.0039	0.885 ± 0.023
303.15 K, 101.33 kPa, x1 = 0.008	0.98 ± 0.025
303.15 K, 101.33 kPa, x1 = 0.0121	1.085 ± 0.027
303.15 K, 101.33 kPa, x1 = 0.0169	1.219 ± 0.03
303.15 K, 101.33 kPa, x1 = 0.0261	1.495 ± 0.036
303.15 K, 101.33 kPa, x1 = 0.0372	1.887 ± 0.045
303.15 K, 101.33 kPa, x1 = 0.0602	2.82 ± 0.065
303.15 K, 101.33 kPa, x1 = 0.0909	4.364 ± 0.098
303.15 K, 101.33 kPa, x1 = 0.1326	6.361 ± 0.13
303.15 K, 101.33 kPa, x1 = 0.1883	8.984 ± 0.18
303.15 K, 101.33 kPa, x1 = 0.3789	11.36 ± 0.22
303.15 K, 101.33 kPa, x1 = 0.5883	8.745 ± 0.17
303.15 K, 101.33 kPa, x1 = 0.6638	7.615 ± 0.15
303.15 K, 101.33 kPa, x1 = 0.758	5.577 ± 0.12
303.15 K, 101.33 kPa, x1 = 0.8765	4.459 ± 0.1
303.15 K, 101.33 kPa, x1 = 0.9544	3.65 ± 0.083
308.15 K, 101 kPa, x1 = 0.062	2.552 ± 0.02
313.15 K, 100 kPa, x1 = 0.06181	2.13 ± 0.04
313.15 K, 100 kPa, x1 = 0.09296	3.08 ± 0.06
313.15 K, 101 kPa, x1 = 0.02641	1.18 ± 0.03
313.15 K, 101 kPa, x1 = 0.06181	2.07 ± 0.04
313.15 K, 101 kPa, x1 = 0.062	2.165 ± 0.019
313.15 K, 101 kPa, x1 = 0.1117	3.5 ± 0.07
313.15 K, 101.33 kPa, x1 = 0.0039	0.723 ± 0.019
313.15 K, 101.33 kPa, x1 = 0.008	0.791 ± 0.021
313.15 K, 101.33 kPa, x1 = 0.0121	0.866 ± 0.022
313.15 K, 101.33 kPa, x1 = 0.0169	0.958 ± 0.024
313.15 K, 101.33 kPa, x1 = 0.0261	1.149 ± 0.028
313.15 K, 101.33 kPa, x1 = 0.0372	1.412 ± 0.034
313.15 K, 101.33 kPa, x1 = 0.0602	2.016 ± 0.048
313.15 K, 101.33 kPa, x1 = 0.0909	2.912 ± 0.067
313.15 K, 101.33 kPa, x1 = 0.1326	4.179 ± 0.094
313.15 K, 101.33 kPa, x1 = 0.1883	5.497 ± 0.12
313.15 K, 101.33 kPa, x1 = 0.2629	6.627 ± 0.14
313.15 K, 101.33 kPa, x1 = 0.3136	7.004 ± 0.14
313.15 K, 101.33 kPa, x1 = 0.3789	7.054 ± 0.14
313.15 K, 101.33 kPa, x1 = 0.4547	6.685 ± 0.14
313.15 K, 101.33 kPa, x1 = 0.6638	4.668 ± 0.11
313.15 K, 101.33 kPa, x1 = 0.758	3.694 ± 0.084
313.15 K, 101.33 kPa, x1 = 0.8765	3.059 ± 0.07
313.15 K, 101.33 kPa, x1 = 0.9544	2.639 ± 0.061
318.15 K, 101 kPa, x1 = 0.062	1.86 ± 0.019
323.15 K, 100 kPa, x1 = 0.06181	1.6 ± 0.03
323.15 K, 101 kPa, x1 = 0.02641	0.93 ± 0.02
323.15 K, 101 kPa, x1 = 0.06181	1.55 ± 0.03
323.15 K, 101 kPa, x1 = 0.062	1.617 ± 0.018
323.15 K, 101 kPa, x1 = 0.1117	2.51 ± 0.05

CC[C@@H](CO)NCCN[C@@H](CC)CO.Cl.Cl + O
298.15 K, 100 kPa
Conditions	viscosity [mPa·s]
x1 = 9.47e-06	0.8977 ± 0.019
x1 = 1.925e-05	0.8983 ± 0.019
x1 = 3.721e-05	0.8987 ± 0.019
x1 = 9.087e-05	0.9011 ± 0.019
x1 = 0.0001804	0.9029 ± 0.019
x1 = 0.000898	0.9213 ± 0.019
x1 = 0.001796	0.9443 ± 0.02

CCN(CC)CCO + O=C1CCCCC1
viscosity [mPa·s], 101 kPa
Conditions	298.15 K	308.15 K	318.15 K
x2 = 0.0501	3.267 ± 0.02	2.46 ± 0.015	1.885 ± 0.012
x2 = 0.1004	3.133 ± 0.019	2.336 ± 0.015	1.766 ± 0.011
x2 = 0.15	3.002 ± 0.018	2.228 ± 0.014	1.663 ± 0.011
x2 = 0.2	2.878 ± 0.018	2.126 ± 0.013	1.564 ± 0.01
x2 = 0.3002	2.662 ± 0.016	1.939 ± 0.012	1.417 ± 0.009
x2 = 0.4	2.49 ± 0.015	1.799 ± 0.011	1.309 ± 0.009
x2 = 0.5	2.344 ± 0.015	1.703 ± 0.011	1.24 ± 0.008
x2 = 0.5999	2.234 ± 0.014	1.647 ± 0.01	1.224 ± 0.008
x2 = 0.6503	2.191 ± 0.014	1.639 ± 0.01	1.229 ± 0.008
x2 = 0.6995	2.159 ± 0.013	1.639 ± 0.01	1.249 ± 0.008
x2 = 0.7997	2.127 ± 0.013	1.663 ± 0.011	1.306 ± 0.008
x2 = 0.8997	2.121 ± 0.013	1.717 ± 0.011	1.389 ± 0.009
x2 = 0.9497	2.133 ± 0.013	1.747 ± 0.011	1.443 ± 0.009

OC1CCCCC1 + O=C1CCCCC1
298.15 K, 101.3 kPa
Conditions	viscosity [mPa·s]
x2 = 0.2	13.85 ± 0.18
x2 = 0.4	6.29 ± 0.07
x2 = 0.51	4.54 ± 0.05
x2 = 0.6	3.54 ± 0.04
x2 = 0.8	2.38 ± 0.02

— the CheMixHub viscosity set
